Experimental data taken from patent US20250197794A1, “MEMBRANE RUPTURE COMPOSITIONS AND METHODS OF MAKING AND USING SAME” (priority 2020, published 2025).

Tests used:
[1] = reference [6]; cited from earlier work
SF9 cells = assay: Cell lysis, percent cell viability by Vi-Cell (trypan blue exclusion); format: cell-based, insect; settings: SF9, 1 hour incubation
Procedure: The cell rupture solution was tested both for HEK 293 and SF9 cell lines. The cell concentration was >5×10^6 cells/ml. A cell harvest in cell culture media was spiked with the concentrated stock of cell rupture solution to reach a final cell rupture solution concentration ranging from 0% to 0.5% and was incubated for about 5 minutes to about 1 hour at 15° C. to 30° C. The concentration of the stock solution could be 1-500-fold higher than the target concentration. After the incubation period, cell viability of cells was analyzed by a Vi-Cell reader.
SF9 cells for the study were grown in SF-900 II SFM (Invitrogen/Gibco 10902) media in a non-vented non-baffled shake flask. The incubator was set at 27° C. and 125 rpm.
For the cell lysis study, 2 mL of cells were added to each of 10×15 mL tubes under a sterile biosafety cabinet. Each tube was spiked with 0% (control, no detergent), 0.0025%, 0.005%, 0.0075%, 0.01%, 0.02%, 0.05%, 0.1%, 0.25%, and 0.5% of cell rupture solution using a concentrated stock. Cell counts and percent cell viability were determined at 15 min, 30 min, and 1 hour time points for each sample using the ViCell cell viability analyzer.
Cell viability was assessed by a Vi-Cell XR using trypan blue exclusion staining. […]

HEK 293 cells = settings: HEK 293, 1 hour incubation

Substance: Octoxynol-9 [Triton X-100]
- toxicity reported by research [1]: acute oral toxicity, eye damage, skin irritation, and chronic aquatic toxicity
- detergent concentration at which cell lysis was complete (SF9 cells): 0.05%
- detergent concentration at which cell lysis was complete (HEK 293 cells): 0.05%
